In ChEMBL document CHEMBL3885881, “DrugMatrix”:

Species: Rattus norvegicus
Assay: DrugMatrix - Regimen: Daily Repeat
Assay type: toxicity, organism-based, Sprague-Dawley
Design: regimen Daily Repeat, gender Male, age 6-8 weeks
Details: in vivo, sc, route subcutaneous, […]; for ABSOLUTE BASOPHIL / ABSOLUTE EOSINOPHIL / ABSOLUTE LYMPHOCYTE / ABSOLUTE MONOCYTE / ABSOLUTE SEGMENTED NEUTROPHIL / BASOPHIL / EOSINOPHIL / ERYTHROCYTE COUNT / HEMATOCRIT / HEMOGLOBIN / LEUKOCYTE COUNT / LYMPHOCYTE / MEAN CORPUSCULAR HEMOGLOBIN / MEAN CORPUSCULAR HEMOGLOBIN CONCENTRATION / MEAN CORPUSCULAR VOLUME / MONOCYTE / NEUTROPHIL / NUCLEATED RED BLOOD CELLS / PLATELET COUNT: tissue Blood; for ALANINE AMINOTRANSFERASE / ALKALINE PHOSPHATASE / ASPARTATE AMINOTRANSFERASE / BLOOD UREA NITROGEN / CARBON DIOXIDE / CHLORIDE / CHOLESTEROL / CREATINE PHOSPHOKINASE / CREATININE / GLUCOSE / LACTATE DEHYDROGENASE / LIPASE / PHOSPHORUS / POTASSIUM / SODIUM / TOTAL BILIRUBIN / TOTAL PROTEIN / URIC ACID: tissue Plasma
[1] = 17 mg/kg, 120 h, dose level Low, time 5 day
[2] = 800 mg/kg, 72 h, dose level High, time 3 day
[3] = 800 mg/kg, 120 h, dose level High, time 5 day

CC(C)Cn1cnc2c(N)nc3ccccc3c21 [IMIQUIMOD]
ABSOLUTE BASOPHIL [1]: 0 CELLS/uL | ABSOLUTE EOSINOPHIL [1]: 29.67 CELLS/uL | ABSOLUTE LYMPHOCYTE [1]: 8944.33 CELLS/uL | ABSOLUTE MONOCYTE [1]: 43 CELLS/uL | ABSOLUTE SEGMENTED NEUTROPHIL [1]: 1349.67 CELLS/uL | BASOPHIL [1]: 0% | EOSINOPHIL [1]: 0.33% | ERYTHROCYTE COUNT [1]: 5.45 x10E6/uL | HEMATOCRIT [1]: 33.33% | HEMOGLOBIN [1]: 12.27 G/DL | LEUKOCYTE COUNT [1]: 10.37 x10E3/uL | LYMPHOCYTE [1]: 85.67% | MEAN CORPUSCULAR HEMOGLOBIN [1]: 22.53 pg | MEAN CORPUSCULAR HEMOGLOBIN CONCENTRATION [1]: 36.77 G/DL | MEAN CORPUSCULAR VOLUME [1]: 61.17 fL | MONOCYTE [1]: 0.33% | NEUTROPHIL [1]: 13.67% | NUCLEATED RED BLOOD CELLS [1]: 0.67 /100WBC | PLATELET COUNT [1]: 1497.33 x10E3/uL | ALANINE AMINOTRANSFERASE [1]: 53 u/L | ALKALINE PHOSPHATASE [1]: 401.33 u/L | ASPARTATE AMINOTRANSFERASE [1]: 93.33 u/L | BLOOD UREA NITROGEN [1]: 17 mg/dL | CARBON DIOXIDE [1]: 23.67 mmol/L | CHLORIDE [1]: 108.67 MEQ/L | CHOLESTEROL [1]: 52.33 mg/dL | CREATINE PHOSPHOKINASE [1]: 410.67 u/L | CREATININE [1]: 0.19 mg/dL | GLUCOSE [1]: 174.67 mg/dL | LACTATE DEHYDROGENASE [1]: 110 u/L | LIPASE [1]: 7 u/L | PHOSPHORUS [1]: 13.1 mg/dL | POTASSIUM [1]: 6.07 MEQ/L | SODIUM [1]: 146.2 MEQ/L | TOTAL BILIRUBIN [1]: 0.2 mg/dL | TOTAL PROTEIN [1]: 5.23 G/DL | URIC ACID [1]: 1.73 mg/dL | ABSOLUTE BASOPHIL [2]: 0 CELLS/uL | ABSOLUTE EOSINOPHIL [2]: 67.67 CELLS/uL | ABSOLUTE LYMPHOCYTE [2]: 7240 CELLS/uL | ABSOLUTE MONOCYTE [2]: 88 CELLS/uL | ABSOLUTE SEGMENTED NEUTROPHIL [2]: 637.67 CELLS/uL | BASOPHIL [2]: 0% | EOSINOPHIL [2]: 1% | ERYTHROCYTE COUNT [2]: 5.31 x10E6/uL | HEMATOCRIT [2]: 33.3% | HEMOGLOBIN [2]: 12.5 G/DL | LEUKOCYTE COUNT [2]: 8.03 x10E3/uL | LYMPHOCYTE [2]: 90% | MEAN CORPUSCULAR HEMOGLOBIN [2]: 23.57 pg | MEAN CORPUSCULAR HEMOGLOBIN CONCENTRATION [2]: 37.57 G/DL | MEAN CORPUSCULAR VOLUME [2]: 62.73 fL | MONOCYTE [2]: 1% | NEUTROPHIL [2]: 8% | NUCLEATED RED BLOOD CELLS [2]: 0 /100WBC | PLATELET COUNT [2]: 828 x10E3/uL | ALANINE AMINOTRANSFERASE [2]: 47 u/L | ALKALINE PHOSPHATASE [2]: 345.33 u/L | ASPARTATE AMINOTRANSFERASE [2]: 91.67 u/L | BLOOD UREA NITROGEN [2]: 15.67 mg/dL | CARBON DIOXIDE [2]: 28.67 mmol/L | CHLORIDE [2]: 107 MEQ/L | CHOLESTEROL [2]: 65 mg/dL | CREATINE PHOSPHOKINASE [2]: 419.33 u/L | CREATININE [2]: 0.27 mg/dL | GLUCOSE [2]: 147 mg/dL | LACTATE DEHYDROGENASE [2]: 130.67 u/L | LIPASE [2]: 7.5 u/L | PHOSPHORUS [2]: 10.23 mg/dL | POTASSIUM [2]: 5.87 MEQ/L | SODIUM [2]: 147.45 MEQ/L | TOTAL BILIRUBIN [2]: 0.13 mg/dL | TOTAL PROTEIN [2]: 5.17 G/DL | URIC ACID [2]: 0.73 mg/dL | ABSOLUTE BASOPHIL [3]: 0 CELLS/uL | ABSOLUTE EOSINOPHIL [3]: 301.33 CELLS/uL | ABSOLUTE LYMPHOCYTE [3]: 14418.33 CELLS/uL | ABSOLUTE MONOCYTE [3]: 118 CELLS/uL | ABSOLUTE SEGMENTED NEUTROPHIL [3]: 5662.33 CELLS/uL | BASOPHIL [3]: 0% | EOSINOPHIL [3]: 1.33% | ERYTHROCYTE COUNT [3]: 4.85 x10E6/uL | HEMATOCRIT [3]: 30.53% | HEMOGLOBIN [3]: 12.07 G/DL | LEUKOCYTE COUNT [3]: 20.5 x10E3/uL | LYMPHOCYTE [3]: 70.33% | MEAN CORPUSCULAR HEMOGLOBIN [3]: 24.9 pg | MEAN CORPUSCULAR HEMOGLOBIN CONCENTRATION [3]: 39.5 G/DL | MEAN CORPUSCULAR VOLUME [3]: 62.93 fL | MONOCYTE [3]: 0.67% | NEUTROPHIL [3]: 27.67% | NUCLEATED RED BLOOD CELLS [3]: 0.33 /100WBC | PLATELET COUNT [3]: 1467 x10E3/uL | ALANINE AMINOTRANSFERASE [3]: 44 u/L | ALKALINE PHOSPHATASE [3]: 267.67 u/L | ASPARTATE AMINOTRANSFERASE [3]: 86 u/L | BLOOD UREA NITROGEN [3]: 18 mg/dL | CARBON DIOXIDE [3]: 25 mmol/L | CHLORIDE [3]: 103.67 MEQ/L | CHOLESTEROL [3]: 58 mg/dL | CREATINE PHOSPHOKINASE [3]: 257.33 u/L | CREATININE [3]: 0.29 mg/dL | GLUCOSE [3]: 184.67 mg/dL | LACTATE DEHYDROGENASE [3]: 248 u/L | LIPASE [3]: 7.67 u/L | PHOSPHORUS [3]: 11.8 mg/dL | POTASSIUM [3]: 5.8 MEQ/L | SODIUM [3]: 142.87 MEQ/L | TOTAL BILIRUBIN [3]: 0.17 mg/dL | TOTAL PROTEIN [3]: 5.3 G/DL | URIC ACID [3]: 1.6 mg/dL
